This is an account of results in ChEMBL document CHEMBL1136713, “Structure-activity relationships of acetylcholinesterase noncovalent inhibitors based on a polyamine backbone. 2. Role of the substituents on the phenyl ring and nitrogen atoms of caproctamine” (J Med Chem, 2003).

A value given as a limit tells only on which side of the number the result lay.

The nature of data set [1]: Apparent dissociation constant of compound was evaluated. Format: ADME.
In data set [2] the target is T1, Acetylcholinesterase (Homo sapiens, UniProt P22303).
Description: Inhibitory concentration against acetylcholinesterase from human erythrocytes
The target of data set [3] is Cholinesterase (Homo sapiens, UniProt P06276).
Description: Inhibitory concentration against butyrylcholinesterase from human serum
Data set [4] has as its target T2, Muscarinic acetylcholine receptor M2 (Homo sapiens) (UniProt P08172).
T2 sequence (whole entry): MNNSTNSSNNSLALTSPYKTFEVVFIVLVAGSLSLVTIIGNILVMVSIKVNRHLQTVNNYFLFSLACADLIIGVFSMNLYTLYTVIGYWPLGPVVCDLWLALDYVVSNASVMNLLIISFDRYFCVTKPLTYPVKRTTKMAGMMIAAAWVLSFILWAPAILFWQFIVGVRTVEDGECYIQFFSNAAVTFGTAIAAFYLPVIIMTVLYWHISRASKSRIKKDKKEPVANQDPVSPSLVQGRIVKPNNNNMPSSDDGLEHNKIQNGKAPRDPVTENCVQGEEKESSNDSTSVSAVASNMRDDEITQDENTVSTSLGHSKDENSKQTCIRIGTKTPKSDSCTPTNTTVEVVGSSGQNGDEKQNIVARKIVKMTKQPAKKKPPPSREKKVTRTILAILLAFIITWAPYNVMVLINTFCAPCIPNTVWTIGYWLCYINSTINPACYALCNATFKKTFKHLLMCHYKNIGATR
As to the kind of experiment: Antagonistic potency of compound towards Muscarinic acetylcholine receptor M2 in guinea pig left atrium. Format: functional, tissue-based. The settings on record: Cavia porcellus; Cardiac atrium; target entry is the homologue from another species.

For data set [5], the target named is T1, Acetylcholinesterase. This is another data set of the same source.
Description: Inhibitory concentration of compound against acetylcholinesterase from human erythrocytes at pH=7.0
Data set [6] addresses T1, Acetylcholinesterase. The source holds these as a separate data set.
Description: Inhibitory concentration of compound against acetylcholinesterase from human erythrocytes at pH=7.5
Data set [7] addresses T1, Acetylcholinesterase. The source holds these as a separate data set.
Description: Inhibitory concentration of compound against acetylcholinesterase from human erythrocytes at pH=8.0
Data set [8] has as its target T1, Acetylcholinesterase. The source holds these as a separate data set.
Description: Inhibitory activity of compound against acetylcholinesterase from human erythrocytes
The species entered for data set [9] is Cavia porcellus.
Description: Ability to reverse the D-tubocurarine-induced neuromuscular blockade in guinea pig left atrium

T1 sequence (P22303 whole entry): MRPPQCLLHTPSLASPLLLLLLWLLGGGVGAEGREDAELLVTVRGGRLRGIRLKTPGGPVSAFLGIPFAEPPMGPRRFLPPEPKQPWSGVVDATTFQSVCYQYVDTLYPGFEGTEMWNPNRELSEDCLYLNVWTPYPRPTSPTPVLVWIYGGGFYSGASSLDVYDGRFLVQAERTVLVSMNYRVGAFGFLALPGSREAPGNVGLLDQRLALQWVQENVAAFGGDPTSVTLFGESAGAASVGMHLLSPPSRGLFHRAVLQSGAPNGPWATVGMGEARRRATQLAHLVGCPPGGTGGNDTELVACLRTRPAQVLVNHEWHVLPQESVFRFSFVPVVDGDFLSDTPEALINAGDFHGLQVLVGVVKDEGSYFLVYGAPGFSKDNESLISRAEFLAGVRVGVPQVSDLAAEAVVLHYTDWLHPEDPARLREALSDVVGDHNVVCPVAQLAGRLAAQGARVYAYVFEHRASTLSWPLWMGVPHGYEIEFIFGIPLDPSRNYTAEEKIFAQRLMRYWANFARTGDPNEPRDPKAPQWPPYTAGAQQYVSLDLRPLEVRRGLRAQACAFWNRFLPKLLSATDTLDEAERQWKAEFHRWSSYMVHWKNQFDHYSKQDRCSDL
Chain of Cholinesterase (P06276 whole entry): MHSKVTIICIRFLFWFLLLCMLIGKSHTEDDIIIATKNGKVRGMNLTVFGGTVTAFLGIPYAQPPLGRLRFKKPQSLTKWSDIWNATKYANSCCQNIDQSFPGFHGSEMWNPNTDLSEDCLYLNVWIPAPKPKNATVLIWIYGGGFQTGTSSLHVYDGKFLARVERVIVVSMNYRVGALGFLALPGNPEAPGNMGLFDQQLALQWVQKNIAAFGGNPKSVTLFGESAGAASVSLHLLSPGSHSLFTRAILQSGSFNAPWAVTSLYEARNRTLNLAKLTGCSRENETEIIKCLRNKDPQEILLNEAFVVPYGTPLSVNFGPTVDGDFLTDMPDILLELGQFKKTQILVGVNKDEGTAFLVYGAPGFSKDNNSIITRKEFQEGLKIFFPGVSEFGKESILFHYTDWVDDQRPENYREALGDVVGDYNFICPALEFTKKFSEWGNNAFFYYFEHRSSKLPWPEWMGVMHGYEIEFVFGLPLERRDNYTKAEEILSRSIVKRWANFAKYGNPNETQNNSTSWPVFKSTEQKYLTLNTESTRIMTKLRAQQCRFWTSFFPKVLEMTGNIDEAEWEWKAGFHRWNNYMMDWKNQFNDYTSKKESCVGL

In the case of `CCN(CCCCCC(=O)N(C)CCCCCCCCN(C)C(=O)CCCCCN(CC)Cc1ccccc1OC)Cc1ccccc1OC`, the pKa (in general, the negative logarithm of the acid dissociation constant) in [1] amounted to 7.8. The IC50 (usually the concentration at which inhibition is half-maximal) was 18.6 nM in [2]; 2240 nM in data set [3]; 16.2 nM in data set [5]; 17.4 nM in [6]; 18.6 nM in [7]. Besides, the pKb – broadly, −log10 of the Kb, conventionally taken in molar units – in data set [4] amounted to 5.65. Besides, affinity in [8] was put at a Ki of 12.2 nM. Moreover, the pAI50 in data set [9] is 6.45.
Regarding `CCCOc1ccccc1CN(CC)CCCCCC(=O)N(C)CCCCCCCCN(C)C(=O)CCCCCN(CC)Cc1ccccc1OCCC`, the pKa in data set [1] is 7.75. The concentration for half-maximal inhibition (IC50) in data set [2] is 33.9 nM; in [3], 166 nM. Besides, the pAI50 in data set [9] was found to be 6.19.
Consider `CC[N+](C)(CCCCCC(=O)N(C)CCCCCCCCN(C)C(=O)CCCCC[N+](C)(CC)Cc1ccccc1[N+](=O)[O-])Cc1ccccc1[N+](=O)[O-]` (configuration not stated), for which the IC50 in data set [2] is 12.3 nM; in data set [3], 2400 nM; in data set [5], 12.6 nM; in data set [6], 12.9 nM; in [7], 12.3 nM.
With `CCN(CCCCCCOCCCCCCCCOCCCCCCN(CC)Cc1ccccc1OC)Cc1ccccc1OC`, the results for the IC50 in [2] and in data set [3] were 204 nM and 2630 nM, respectively.
In the case of `CCN(CCCCCC(=O)N(CCCCCCCCN(C(=O)CCCCCN(CC)Cc1ccccc1OC)C(C)C)C(C)C)Cc1ccccc1OC`, the IC50 in [2] is 18.2 nM; in data set [3], 2140 nM.
For the compound `CC[N+](C)(CCCCCC(=O)N(C)CCCCCCCCN(C)C(=O)CCCCC[N+](C)(CC)Cc1ccccc1C(F)(F)F)Cc1ccccc1C(F)(F)F` (configuration not stated), the half-inhibitory concentration (IC50) in data set [2] was 11.7 nM; in data set [3], 7590 nM.
As for `CCN(CCCCCC(=O)N(C)CCCCCCCCN(C)C(=O)CCCCCN(CC)Cc1ccccc1C)Cc1ccccc1C`, the pKa in data set [1] turned out to be 7.46. Also, the IC50 in data set [2] was 56.2 nM; in data set [3], 7410 nM. Besides, the pAI50 in [9] turned out to be 6.35.
On to `COc1cccc(CN(C)CCCCCC(=O)N(C)CCCCCCCCN(C)C(=O)CCCCCN(C)Cc2cccc(OC)c2)c1`, for which the results for the IC50 in [2] and in [3] were 676 nM and 8320 nM, respectively.
In the same order, the values of `CC[N+](C)(CCCCCC(=O)N(C)CCCCCCCCN(C)C(=O)CCCCC[N+](C)(CC)Cc1ccccc1Cl)Cc1ccccc1Cl` (configuration not stated) are 19.5 nM and 2570 nM.
In the case of `CC[N+](C)(CCCCCC(=O)N(C)CCCCCCCCN(C)C(=O)CCCCC[N+](C)(CC)Cc1ccccc1OC)Cc1ccccc1OC` (configuration not stated), the IC50 in data set [2] is 12 nM; in data set [3], 1410 nM; in [5] it was 11 nM; in [6], 11 nM; in data set [7], 12 nM. In [9], this compound showed a pAI50 of 7.21.
Turning to `CC[N+](C)(CCCCCCOCCCCCCCCOCCCCCC[N+](C)(CC)Cc1ccccc1OC)Cc1ccccc1OC` (configuration not stated), the half-maximal inhibitory concentration (IC50) in data set [2] is 77.6 nM; in data set [3] it was 759 nM.
In the same order, the values of `CC[N+](C)(CCCCCC(=O)N(C)CCCCCCCCN(C)C(=O)CCCCC[N+](C)(CC)Cc1ccccc1C)Cc1ccccc1C` (configuration not stated) are 16.6 nM and 6460 nM.
`CCN(CCCCCC(=O)N(C)CCCCCCCCN(C)C(=O)CCCCCN(CC)Cc1ccccc1)Cc1ccccc1`: the pKa in [1] is 7.42. Besides, the IC50 is 49 nM in data set [2] and 1070 nM in [3]. Besides, the pAI50 in data set [9] is recorded as 6.32.
Consider `CCN(CCCCCC(=O)N(C)CCCCCCCCN(C)C(=O)CCCCCN(CC)Cc1ccccc1[N+](=O)[O-])Cc1ccccc1[N+](=O)[O-]`, for which the pKa in data set [1] turned out to be 6.26. For the same compound, the IC50 in data set [2] is 794 nM; in data set [3], 55000 nM; in data set [5], 32.4 nM; in [6], 79.4 nM; in data set [7] it was 794 nM. In addition, the pAI50 in data set [9] was found to be 5.93.
`CC[N+](C)(CCCCCC(=O)N(C)CCCCCCCCN(C)C(=O)CCCCC[N+](C)(CC)Cc1ccccc1)Cc1ccccc1` (configuration not stated): the concentration for half-maximal inhibition (IC50) in [2] was 37.2 nM; in data set [3], 2510 nM.
In the same order, the values of `CCCOc1ccccc1C[N+](C)(CC)CCCCCC(=O)N(C)CCCCCCCCN(C)C(=O)CCCCC[N+](C)(CC)Cc1ccccc1OCCC` (configuration not stated) are 17.4 nM and 83.2 nM.
`CCN(CCCCCC(=O)N(C)CCCCCCCCN(C)C(=O)CCCCCN(CC)Cc1ccccc1C(F)(F)F)Cc1ccccc1C(F)(F)F`: in [1], the pKa came out at 6.15. Moreover, the IC50 in data set [2] was 4570 nM; in data set [3], 166000 nM. For the same compound, the negative logarithm of the Kb (pKb) in data set [4] was less than 5. This compound yielded a pAI50 in data set [9] of 6.84.
In the same order, the values of `CCN(CCCCCC(=O)N(C)CCCCCCCCN(C)C(=O)CCCCCN(CC)Cc1ccccc1Cl)Cc1ccccc1Cl` are 6.92, 112 nM, 4070 nM, 5.61 and 7.19.
For the compound `COc1ccc(CN(C)CCCCCC(=O)N(C)CCCCCCCCN(C)C(=O)CCCCCN(C)Cc2ccc(OC)cc2)cc1`, the half-inhibitory concentration (IC50) in data set [2] is 5750 nM; in data set [3], 5500 nM.
`CNC(=O)Oc1ccc2c(c1)[C@]1(C)CCN(C)[C@@H]1N2C` [PHYSOSTIGMINE] gave a pAI50 in data set [9] of 6.5.
As for `COc1ccccc1CN(CCCCCC(=O)N(C)CCCCCCCCN(C)C(=O)CCCCCN(Cc1ccccc1OC)C(C)C)C(C)C`, the figures for the IC50 in [2] and in data set [3] were 72.4 nM and 871 nM, respectively.
In the same order, the values of `CC[N+](C)(CCCCCC(=O)N(CCCCCCCCN(C(=O)CCCCC[N+](C)(CC)Cc1ccccc1OC)C(C)C)C(C)C)Cc1ccccc1OC` (configuration not stated) are 8.13 nM and 1660 nM.
For the compound `COc1ccccc1CN(C)CCCCCC(=O)N(C)CCCCCCCCN(C)C(=O)CCCCCN(C)Cc1ccccc1OC` [CAPROCTAMINE], the negative logarithm of the Kb (pKb) in [4] amounted to 6.39. For the same compound, in data set [8], the Ki (commonly a dissociation constant, usually derived from enzyme kinetics or from competition with a known ligand) was 104 nM. The compound also registered a pAI50 in data set [9] of 5.79.
